Assay results taken from US20090042964A1, “AMINO-5-[SUBSTITUTED-4-(DIFLUOROMETHOXY)PHENYL]-5-PHENYLIMIDAZOLONE COMPOUNDS AS BETA-SECRETASE INHIBITORS” (Wyeth, priority 2007, published 2009).
pIC50: −log10 of the molar value.

Target: human BACE1 (Homo sapiens, UniProt P56817)
Test: Fluorescent kinetic assay, evaluation of BACE1 binding affinity of test compounds
Type: biochemical
Conditions: 10 nM human BACE1, 25 μM substrate WABC-6, pH 4.5, room temperature; read-out: BACE1 IC50
Outline: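 Kinetic fluorescence assay: enzyme added last to inhibitor and substrate mix, reading started immediately; substrate at 100 μM working dilution (25 μL in 100 μL total). Buffer 66.7 mM Na-acetate pH 4.5 with 0.0667% CHAPS for inhibitor and enzyme dilutions; enzyme stock quantified at 280 nm.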

Sequence of human BACE1 (P56817 46-501): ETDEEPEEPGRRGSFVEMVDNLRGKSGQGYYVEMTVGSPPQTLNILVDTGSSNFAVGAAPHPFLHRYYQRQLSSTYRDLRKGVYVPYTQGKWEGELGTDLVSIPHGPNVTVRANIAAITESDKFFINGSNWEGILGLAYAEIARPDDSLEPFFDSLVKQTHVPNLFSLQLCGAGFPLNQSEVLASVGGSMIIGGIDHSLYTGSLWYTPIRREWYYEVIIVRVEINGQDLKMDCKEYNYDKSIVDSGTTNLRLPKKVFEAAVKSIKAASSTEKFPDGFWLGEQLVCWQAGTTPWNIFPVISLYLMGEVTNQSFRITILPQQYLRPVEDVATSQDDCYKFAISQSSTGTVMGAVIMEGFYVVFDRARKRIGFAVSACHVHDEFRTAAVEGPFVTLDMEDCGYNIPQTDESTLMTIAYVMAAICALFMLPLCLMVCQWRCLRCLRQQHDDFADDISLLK

Structure (SMILES)	pIC50
Cc1cc(C2(c3ccc(F)c(OCCCF)c3)N=C(N)N(C)C2=O)ccc1OC(F)F (stereo not shown) [Example 108, 2-Amino-5-[4-(difluoromethoxy)-3-methylphenyl]-5-[4-fluoro-3-(3-fluoropropoxy)phenyl]-3-methyl-3,5-dihydro-4H-imidazol-4-one]	> 7.00
Cc1cc(C2(c3ccc(F)c(OCCF)c3)N=C(N)N(C)C2=O)ccc1OC(F)F (stereo not shown) [Example 109, 2-Amino-5-[4-(difluoromethoxy)-3-methylphenyl]-5-[4-fluoro-3-(2-fluoroethoxy)phenyl]-3-methyl-3,5-dihydro-4H-imidazol-4-one]	> 7.00
Cc1cc([C@@]2(c3ccc(F)c(OCCCF)c3)N=C(N)N(C)C2=O)ccc1OC(F)F [Example 110, (5S)-2-Amino-5-[4-(difluoromethoxy)-3-methylphenyl]-5-[4-fluoro-3-(3-fluoropropoxy)phenyl]-3-methyl-3,5-dihydro-4H-imidazol-4-one]	6.00 to 6.96
Cc1cc([C@]2(c3ccc(F)c(OCCCF)c3)N=C(N)N(C)C2=O)ccc1OC(F)F [Example 111, (5R)-2-Amino-5-[4-(difluoromethoxy)-3-methylphenyl]-5-[4-fluoro-3-(3-fluoropropoxy)phenyl]-3-methyl-3,5-dihydro-4H-imidazol-4-one]	> 7.00
Cc1cc([C@@]2(c3ccc(F)c(OCCF)c3)N=C(N)N(C)C2=O)ccc1OC(F)F [Example 112, (5S)-2-Amino-5-[4-(difluoromethoxy)-3-methylphenyl]-5-[4-fluoro-3-(2-fluoroethoxy)phenyl]-3-methyl-3,5-dihydro-4H-imidazol-4-one]	< 6.00
Cc1cc([C@]2(c3ccc(F)c(OCCF)c3)N=C(N)N(C)C2=O)ccc1OC(F)F [Example 113, (5R)-2-Amino-5-[4-(difluoromethoxy)-3-methylphenyl]-5-[4-fluoro-3-(2-fluoroethoxy)phenyl]-3-methyl-3,5-dihydro-4H-imidazol-4-one]	> 7.00
CCCOc1cc(C2(c3ccc(OC(F)F)c(C)c3)N=C(N)N(C)C2=O)ccc1F (stereo not shown) [Example 114, 2-Amino-5-[4-(difluoromethoxy)-3-methylphenyl]-5-(4-fluoro-3-propoxyphenyl)-3-methyl-3,5-dihydro-4H-imidazol-4-one]	> 7.00
CCCOc1cc([C@]2(c3ccc(OC(F)F)c(C)c3)N=C(N)N(C)C2=O)ccc1F [Example 115, (5S)-2-Amino-5-[4-(difluoromethoxy)-3-methylphenyl]-5-(4-fluoro-3-propoxyphenyl)-3-methyl-3,5-dihydro-4H-imidazol-4-one]	6.00 to 6.96
CCc1cc(C2(c3ccc(F)c(OCC(F)F)c3)N=C(N)N(C)C2=O)ccc1OC(F)F (stereo not shown) [Example 117, 2-Amino-5-[3-(2,2-difluoroethoxy)-4-fluorophenyl]-5-[4-(difluoromethoxy)-3-ethylphenyl]-3-methyl-3,5-dihydro-4H-imidazol-4-one]	> 7.00
CCc1cc([C@@]2(c3ccc(F)c(OCC(F)F)c3)N=C(N)N(C)C2=O)ccc1OC(F)F [Example 118, (5S)-2-Amino-5-[3-(2,2-difluoroethoxy)-4-fluorophenyl]-5-[4-(difluoromethoxy)-3-ethylphenyl]-3-methyl-3,5-dihydro-4H-imidazol-4-one]	< 6.00
CCc1cc([C@]2(c3ccc(F)c(OCC(F)F)c3)N=C(N)N(C)C2=O)ccc1OC(F)F [Example 119, (5R)-2-Amino-5-[3-(2,2-difluoroethoxy)-4-fluorophenyl]-5-[4-(difluoromethoxy)-3-ethylphenyl]-3-methyl-3,5-dihydro-4H-imidazol-4-one]	> 7.00
CCc1cc(C2(c3ccc(F)c(OCCCF)c3)N=C(N)N(C)C2=O)ccc1OC(F)F (stereo not shown) [Example 120, 2-Amino-5-[4-(difluoromethoxy)-3-ethylphenyl]-5-[4-fluoro-3-(3-fluoropropoxy)phenyl]-3-methyl-3,5-dihydro-4H-imidazol-4-one]	> 7.00
CCc1cc([C@@]2(c3ccc(F)c(OCCCF)c3)N=C(N)N(C)C2=O)ccc1OC(F)F [Example 121, (5S)-2-Amino-5-[4-(difluoromethoxy)-3-ethylphenyl]-5-[4-fluoro-3-(3-fluoropropoxy)phenyl]-3-methyl-3,5-dihydro-4H-imidazol-4-one]	< 6.00
CN1C(=O)C(c2ccc(F)c(OCC(F)F)c2)(c2ccc(OC(F)F)c(C3CC3)c2)N=C1N (stereo not shown) [Example 123, 2-Amino-5-[3-cyclopropyl-4-(difluoromethoxy)phenyl]-5-[3-(2,2-difluoroethoxy)-4-fluorophenyl]-3-methyl-3,5-dihydro-4H-imidazol-4-one]	> 7.00
CN1C(=O)[C@@](c2ccc(F)c(OCC(F)F)c2)(c2ccc(OC(F)F)c(C3CC3)c2)N=C1N [Example 124, (5S)-2-Amino-5-[3-cyclopropyl-4-(difluoromethoxy)phenyl]-5-[3-(2,2-difluoroethoxy)-4-fluorophenyl]-3-methyl-3,5-dihydro-4H-imidazol-4-one]	< 6.00
CN1C(=O)[C@](c2ccc(F)c(OCC(F)F)c2)(c2ccc(OC(F)F)c(C3CC3)c2)N=C1N [Example 125, (5R)-2-Amino-5-[3-cyclopropyl-4-(difluoromethoxy)phenyl]-5-[3-(2,2-difluoroethoxy)-4-fluorophenyl]-3-methyl-3,5-dihydro-4H-imidazol-4-one]	> 7.00

Structure (SMILES)	pIC50
Cc1cc(C2(c3cccc(OCCC(F)F)c3)N=C(N)N(C)C2=O)ccc1OC(F)F (stereo not shown) [Example 126, 2-Amino-5-[4-(difluoromethoxy)-3-methylphenyl]-5-[3-(3,3-difluoropropoxy)phenyl]-3-methyl-3,5-dihydro-4H-imidazol-4-one]	> 7.00
Cc1cc([C@]2(c3cccc(OCCC(F)F)c3)N=C(N)N(C)C2=O)ccc1OC(F)F [Example 127, (5R)-2-Amino-5-[4-(difluoromethoxy)-3-methylphenyl]-5-[3-(3,3-difluoropropoxy)phenyl]-3-methyl-3,5-dihydro-4H-imidazol-4-one]	> 7.00
Cc1cc([C@@]2(c3cccc(OCCC(F)F)c3)N=C(N)N(C)C2=O)ccc1OC(F)F [Example 128, (5S)-2-Amino-5-[4-(difluoromethoxy)-3-methylphenyl]-5-[3-(3,3-difluoropropoxy)phenyl]-3-methyl-3,5-dihydro-4H-imidazol-4-one]	6.00 to 6.96
CN1C(=O)C(c2ccc(OC(F)F)c(CCF)c2)(c2ccc(F)c(OCC(F)F)c2)N=C1N (stereo not shown) [Example 129, 2-Amino-5-[3-(2,2-difluoroethoxy)-4-fluorophenyl]-5-[4-(difluoromethoxy)-3-(2-fluoroethyl)phenyl]-3-methyl-3,5-dihydro-4H-imidazol-4-one]	> 7.00
Cc1cc(C2(c3ccc(F)c(OCCC(F)F)c3)N=C(N)N(C)C2=O)ccc1OC(F)F (stereo not shown) [Example 130, 2-Amino-5-[4-(difluoromethoxy)-3-methylphenyl]-5-[3-(3,3-difluoropropoxy)-4-fluorophenyl]-3-methyl-3,5-dihydro-4H-imidazol-4-one]	> 7.00
Cc1cc([C@@]2(c3ccc(F)c(OCCC(F)F)c3)N=C(N)N(C)C2=O)ccc1OC(F)F [Example 131, (5S)-2-Amino-5-[4-(difluoromethoxy)-3-methylphenyl]-5-[3-(3,3-difluoropropoxy)-4-fluorophenyl]-3-methyl-3,5-dihydro-4H-imidazol-4-one]	< 6.00
Cc1cc([C@]2(c3ccc(F)c(OCCC(F)F)c3)N=C(N)N(C)C2=O)ccc1OC(F)F [Example 132, (5R)-2-Amino-5-[4-(difluoromethoxy)-3-methylphenyl]-5-[3-(3,3-difluoropropoxy)-4-fluorophenyl]-3-methyl-3,5-dihydro-4H-imidazol-4-one]	> 7.00
CN1C(=O)C(c2ccc(F)c(OCCC(F)F)c2)(c2ccc(OC(F)F)c(C3CC3)c2)N=C1N (stereo not shown) [Example 133, 2-Amino-5-[3-cyclopropyl-4-(difluoromethoxy)phenyl]-5-[3-(3,3-difluoropropoxy)-4-fluorophenyl]-3-methyl-3,5-dihydro-4H-imidazol-4-one]	> 7.00
CCc1cc(C2(c3ccc(F)c(OCCC(F)F)c3)N=C(N)N(C)C2=O)ccc1OC(F)F (stereo not shown) [Example 134, 2-Amino-5-[4-(difluoromethoxy)-3-ethylphenyl]-5-[3-(3,3-difluoropropoxy)-4-fluorophenyl]-3-methyl-3,5-dihydro-4H-imidazol-4-one]	> 7.00
CCc1cc([C@@]2(c3ccc(F)c(OCCC(F)F)c3)N=C(N)N(C)C2=O)ccc1OC(F)F [Example 135, (5S)-2-Amino-5-[4-(difluoromethoxy)-3-ethylphenyl]-5-[3-(3,3-difluoropropoxy)-4-fluorophenyl]-3-methyl-3,5-dihydro-4H-imidazol-4-one]	< 6.00
CCc1cc([C@]2(c3ccc(F)c(OCCC(F)F)c3)N=C(N)N(C)C2=O)ccc1OC(F)F [Example 136, (5R)-2-Amino-5-[4-(difluoromethoxy)-3-ethylphenyl]-5-[3-(3,3-difluoropropoxy)-4-fluorophenyl]-3-methyl-3,5-dihydro-4H-imidazol-4-one]	> 7.00
CC(C)c1cc(C2(c3ccccc3)N=C(N)N(C)C2=O)ccc1OC(F)F (stereo not shown) [Example 137, 2-Amino-5-[4-(difluoromethoxy)-3-isopropylphenyl]-3-methyl-5-phenyl-3,5-dihydro-4H-imidazol-4-one]	6.00 to 6.96
CN1C(=O)C(c2ccccc2)(c2ccc(OC(F)F)c(CCO)c2)N=C1N (stereo not shown) [Example 140, 2-Amino-5-[4-(difluoromethoxy)-3-(2-hydroxyethyl)phenyl]-3-methyl-5-phenyl-3,5-dihydro-4H-imidazol-4-one]	6.00 to 6.96
CN1C(=O)C(c2ccccc2)(c2ccc(OC(F)F)c(CCCl)c2)N=C1N (stereo not shown) [Example 141, 2-Amino-5-[4-(difluoromethoxy)-3-(2-chloroethyl)phenyl]-3-methyl-5-phenyl-3,5-dihydro-4H-imidazol-4-one]	> 7.00
COCCc1cc(C2(c3ccccc3)N=C(N)N(C)C2=O)ccc1OC(F)F (stereo not shown) [Example 142, 2-Amino-5-[4-(difluoromethoxy)-3-(2-methoxyethyl)phenyl]-3-methyl-5-phenyl-3,5-dihydro-4H-imidazol-4-one]	> 7.00
